# Data: USRE34284E, “Method for assaying proteolytic enzymes” (bioMerieux Vitek, Inc., priority 1992, dated 1993)
# Several values for one entry are separate records, joined by “and”; a condition that tells them apart may be missing. Identical values can stand only once. Like-named read-outs stand apart in the source and are kept apart here.
# Tests used:
# trypsin [1] = experiment: Kinetic constants for trypsin-catalyzed hydrolysis of BOC-ARG-MBTH, continuous assay (Example 18); type: biochemical; conditions: for kc (kinetic catalytic constant) / Km: tris buffer pH 7.8, 590 nm; for Km: read-out: Km (binding constant)
# Experimental: Determination of the Kinetic Constants for the Trypsin Catalyzed Hydrolysis of N-(N-t-butoxycarbonyl)-L-Arginyl 3-methyl benzothiazolinone hydrazone (continuous assay)).
# In a one cm. cuvette were mixed 3.0 mL of 0.02M tris buffer, pH 7.8, containing 0.02M 3-dimethylamino benzoic acid (DMAB) 0.1 mL of 0.065M potassium ferricyanide, and 0.1 mL of substrate (BOC-ARG-MBTH). The reaction was initiated by the addition of 1 0.1 mL of trypsin (2.33×10^-4 M in 0.1M pyrophosphate buffer, pH 8.3). Eight concentrations of substrate, from 9.98×10^-4 M to 7.8×10^-6 M, were assayed in triplicate. The increase in absorption at 590 nm was monitored continuously and the initial rates were determined. Under the conditions of the assay, a molar absorptivity of 57,000 was used to determine the concentration of the chromogen (MBTH-DMAB) produced by the hydrolysis of substrate. Table I contains the date used to determine the binding and kinetic constants (Km, kc).
# trypsin [2] = experiment: Continuous assay for trypsin, hydrolysis of Z-GLY-PRO-ARG-MBTH (Example 16); type: biochemical; conditions: 1 μg trypsin, 0.14M Tris pH 7.8, 0.0131M DMAB, 0.002M potassium ferricyanide, 3% dimethylformamide; substrate 1.74×10^-3, 5.8×10^-4 and 3.9×10^-4 M in triplicate; 590 nm, 5 minutes
# Experimental: Saturation kinetics for N-(N-benzyloxycarbonyl)glycyl-L-prolyl-L-arginyl 3-methyl-2-benzothiazolinone hydrazone with trypsin).
# A continuous assay for trypsin was performed, i.e., the oxidizing and coupling reagents for color development were included with the substrate in the reaction mixture so that color development may be monitored on a continuous basis with time. In this example the dye precursor is developed to a dye without destroying the enzymatic activity of the enzyme. The reaction was initiated by the addition of 0.1 mL of enzyme (10 μg/mL) to 0.9 mL of buffer solution containing substrate (Z-GLY-PRO-ARG-MBTH) and color developing reagents. The final concentrations in the cuvette were 1 μg trypsin +0.14M Tris buffer, pH 7.8 +0.0131M 3-dimethylamino benzoic acid (DMAB) +0.002M potassium ferricyanide +3% dimethylformamide +substrate. Substrate concentrations of 1.74×10^-3 M, 5.8×10^-4 M and 3.9×10^-4 M were assayed in triplicate. The increases in absorbance at 590 nm were monitored continuously for 5 minutes and the initial rates determined. Using the molar absorptivity of 57,000 for the chromogen produced (MBTH-DMAB), the average rate of hydrolysis was calculated to be 4.43±0.1×10^-6 mol min^-1.
# [3] = Woolf-Augustinssen-Hofstee method
compound,measurement,setting,value
"Cn1c(=NNC(=O)[C@H](CCCNC(=N)N)NC(=O)OC(C)(C)C)sc2ccccc21 [BOC-ARG-MBTH, N-(N-t-butoxycarbonyl)-L-Arginyl 3-methyl benzothiazolinone hydrazone]",I/V,trypsin [1]; I/S 100 M^-1,0.000565 min/M and 0.000528 min/M and 0.000625 min/M
same,V/S,trypsin [1]; I/S 100 M^-1,0.00177 min⁻¹ and 0.0019 min⁻¹ and 0.0016 min⁻¹
same,I/V,trypsin [1]; I/S 200 M^-1,0.000699 min/M and 0.000742 min/M
same,V/S,trypsin [1]; I/S 200 M^-1,0.00287 min⁻¹ and 0.0027 min⁻¹
same,I/V,trypsin [1]; I/S 401 M^-1,0.000766 min/M and 0.00088 min/M and 0.000819 min/M
same,V/S,trypsin [1]; I/S 401 M^-1,0.00523 min⁻¹ and 0.00456 min⁻¹ and 0.00489 min⁻¹
same,I/V,trypsin [1]; I/S 802 M^-1,0.00108 min/M and 0.001188 min/M and 0.001033 min/M
same,V/S,trypsin [1]; I/S 802 M^-1,0.00743 min⁻¹ and 0.00675 min⁻¹ and 0.00776 min⁻¹
same,I/V,trypsin [1]; I/S 1603 M^-1,0.001697 min/M and 0.001607 min/M and 0.001827 min/M
same,V/S,trypsin [1]; I/S 1603 M^-1,0.00945 min⁻¹ and 0.00877 min⁻¹
same,I/V,trypsin [1]; I/S 2305 M^-1,0.002969 min/M and 0.003393 min/M
same,V/S,trypsin [1]; I/S 2305 M^-1,0.01808 min⁻¹ and 0.0108 min⁻¹ and 0.00945 min⁻¹
same,I/V,trypsin [1]; I/S 6413 M^-1,0.005056 min/M and 0.00528 min/M
same,V/S,trypsin [1]; I/S 6413 M^-1,0.01268 min⁻¹ and 0.01215 min⁻¹
same,I/V,trypsin [1]; I/S 12826 M^-1,0.009901 min/M and 0.009506 min/M
same,V/S,trypsin [1]; I/S 12826 M^-1,0.01295 min⁻¹ and 0.01349 min⁻¹
same,kc (kinetic catalytic constant),trypsin [1]; Lineweaver-Burk plot,0.0436 s⁻¹
same,Km,trypsin [1]; Lineweaver-Burk plot,1410 µM
same,kc (kinetic catalytic constant),trypsin [1]; [3],0.0428 s⁻¹
same,Km,trypsin [1]; [3],1290 µM
"Cn1c(=NNC(=O)[C@H](CCCNC(=N)N)NC(=O)[C@@H]2CCCN2C(=O)CNC(=O)OCc2ccccc2)sc2ccccc21 [Z-GLY-PRO-ARG-MBTH, N-(N-benzyloxycarbonyl)glycyl-L-prolyl-L-arginyl 3-methyl-2-benzothiazolinone hydrazone]",average rate of hydrolysis,trypsin [2],4.43±0.1×10^-6 mol min^-1
